{"source": "patent US9005575B2", "about": "“Arg-Gly-Asp-conjugated alpha-melanocyte stimulating hormone hybrid peptide for use in diagnosing and treating melanoma, including metastatic melanoma and methods related to same” (STC.UNM, priority 2009, dated 2015)", "experiment": "Biodistribution in B16/F1 melanoma-bearing C57 mice", "format": "in vivo", "settings": "female, C57, mouse, iv, total radioactivity; for tissue uptake at 0.5 h / tissue to tissue ratio at 0.5 h: 0.5 h post-injection; for tissue uptake at 2 h / tissue to tissue ratio at 2 h: 2 h post-injection; for tissue uptake at 4 h / tissue to tissue ratio at 4 h: 4 h post-injection; for tissue uptake at 24 h / tissue to tissue ratio at 24 h: 24 h post-injection", "experimental": "All the animal studies were conducted in compliance with Institutional Animal Care and Use Committee approval. The pharmacokinetics of ^99mTc-RGD-Lys-(Arg^11)CCMSH was determined in B16/F1 melanoma-bearing C57 female mice (Harlan, Indianapolis, Ind.). C57 mice were subcutaneously inoculated on the right flank with 1×10^6 B16/F1 cells. The weight of tumors reached approximately 0.2 g 10 days post cell inoculation. Each melanoma-bearing mouse was injected with 0.037 MBq of ^99mTc-RGD-Lys-(Arg^11)CCMSH via the tail vein. Groups of 5 mice were sacrificed at 0.5, 2, 4 and 24 h post-injection, and tumors and organs of interest were harvested, weighed and counted. Blood values were taken as 6.5% of the whole-body weight. The MC1 receptor specificity of the tumor uptake was determined at 2 h post-injection by co-injecting ^99mTc-RGD-Lys-(Arg^11)CCMSH with 10 μg (6.1 nmol) of unlabeled NDP-MSH, a linear α-MSH peptide analogue with picomolar affinity for the MC1 receptors present on murine melanoma cells. The co-injection of 3.5 μg (6.1 nmol) of RGD peptide was performed to determine the αvβ3 integrin specificity of the tumor uptake 2 h post-injection. Statistical analysis was performed using the Student's t-test for unpaired data.\nAll the animal studies were conducted in compliance with Institutional Animal Care and Use Committee approval. The pharmacokinetics of ^99mTc-RGD-Arg-(Arg^11)CCMSH was determined in B16/F1 melanoma-bearing C57 female mice (Harlan, Indianapolis, Ind.). C57 mice were subcutaneously inoculated on the right flank with 1×10^6 B16/F1 cells. The weight of tumors reached approximately 0.2 g 10 days post cell inoculation. Each melanoma-bearing mouse was injected with 0.037 MBq of ^99mTc-RGD-Arg-(Arg^11)CCMSH via the tail vein. Groups of 5 mice were sacrificed at 0.5, 2, 4 and 24 h post-injection, and tumors and organs of interest were harvested, weighed and counted. Blood values were taken as 6.5% of the whole-body weight. The MC1 receptor specificity of the tumor uptake was determined at 2 h post-injection by co-injecting ^99mTc-RGD-Arg-(Arg^11)CCMSH with 10 μg (6.1 nmol) of unlabeled NDP-MSH. The co-injection of 3.5 μg (6.1 nmol) of RGD peptide was performed to determine the αvβ3 integrin specificity of the tumor uptake at 2 h post-injection.", "key": {"[1]": {"settings": "pancreas, 0.037 MBq, read-out: Pancreas, Percentage Injected Dose/gram"}, "[2]": {"settings": "skin, 0.037 MBq, read-out: Skin, Percentage Injected Dose/gram"}, "[3]": {"settings": "spleen, 0.037 MBq, read-out: Spleen, Percentage Injected Dose/gram"}, "[4]": {"settings": "stomach, 0.037 MBq, read-out: Stomach, Percentage Injected Dose/gram"}, "[5]": {"settings": "tumor, 0.037 MBq, read-out: Tumor, Percentage Injected Dose/gram"}, "[6]": {"settings": "tumor/blood, 0.037 MBq, read-out: Uptake Ratio Tumor/Blood"}, "[7]": {"settings": "tumor/kidneys, 0.037 MBq, read-out: Uptake Ratio Tumor/Kidneys"}, "[8]": {"settings": "tumor/liver, 0.037 MBq, read-out: Uptake Ratio Tumor/Liver"}, "[9]": {"settings": "tumor/lung, 0.037 MBq, read-out: Uptake Ratio Tumor/Lung"}, "[10]": {"settings": "tumor/muscle, 0.037 MBq, read-out: Uptake Ratio Tumor/Muscle"}}, "note": "Read-outs that look alike come from different tables or passages of the source. Positions of bridges follow the written chain, without caps; N, C: chain ends. Non-standard residues stand in square brackets, D forms with d. Residues, ends and D or L forms follow the SMILES beside them.", "data": [{"compound": "CC(C)[C@H](NC(=O)[C@@H]1CCCN1C(=O)[C@H](CCCNC(=N)N)NC(=O)[C@H](CS)NC(=O)[C@H](Cc1c[nH]c2ccccc12)NC(=O)[C@H](CCCNC(=N)N)NC(=O)[C@@H](Cc1ccccc1)NC(=O)[C@H](Cc1c[nH]cn1)NC(=O)[C@H](CCC(=O)O)NC(=O)[C@H](CS)NC(=O)[C@H](CS)NC(=O)[C@H](CCCCN)NC(=O)[C@@H]1CC(=O)N[C@@H](CCCNC(=N)N)C(=O)NCC(=O)N[C@@H](CC(=O)O)C(=O)N[C@H](Cc2ccc(O)cc2)C(=O)N1)C(N)=O", "note": "[^99mTc-RGD-Lys-(Arg^11)CCMSH, metal not drawn] (RGD[dY]DKCCEH[dF]RWCRPV-NH2; lactam N-5)", "values": [{"measurement": "tissue uptake", "setting": "normal organs except kidneys, 0.037 MBq, after 2 h post-injection, read-out: Normal organ uptakes except for the kidneys", "value": "< 3.2", "unit": "%ID/g"}, {"measurement": "tissue uptake at 0.5 h", "setting": "[1]", "value": "1.48 ± 1.24", "unit": "%ID/g"}, {"measurement": "tissue uptake at 2 h", "setting": "[1]", "value": "0.72 ± 0.53", "unit": "%ID/g"}, {"measurement": "tissue uptake at 4 h", "setting": "[1]", "value": "0.52 ± 0.41", "unit": "%ID/g"}, {"measurement": "tissue uptake at 24 h", "setting": "[1]", "value": "0.25 ± 0.06", "unit": "%ID/g"}, {"measurement": "tissue uptake at 2 h", "setting": "pancreas, NDP blockade (10 μg NDP-MSH co-injected), read-out: Pancreas, Percentage Injected Dose/gram", "value": "0.44 ± 0.37", "unit": "%ID/g"}, {"measurement": "tissue uptake at 2 h", "setting": "pancreas, RGD blockade (3.5 μg RGD co-injected), read-out: Pancreas, Percentage Injected Dose/gram", "value": "0.35 ± 0.19", "unit": "%ID/g"}, {"measurement": "tissue uptake at 0.5 h", "setting": "[2]", "value": "4.53 ± 0.88", "unit": "%ID/g"}, {"measurement": "tissue uptake at 2 h", "setting": "[2]", "value": "1.52 ± 0.66", "unit": "%ID/g"}, {"measurement": "tissue uptake at 4 h", "setting": "[2]", "value": "1.17 ± 0.61", "unit": "%ID/g"}, {"measurement": "tissue uptake at 24 h", "setting": "[2]", "value": "0.78 ± 0.19", "unit": "%ID/g"}, {"measurement": "tissue uptake at 2 h", "setting": "skin, NDP blockade (10 μg NDP-MSH co-injected), read-out: Skin, Percentage Injected Dose/gram", "value": "1.14 ± 0.38", "unit": "%ID/g"}, {"measurement": "tissue uptake at 2 h", "setting": "skin, RGD blockade (3.5 μg RGD co-injected), read-out: Skin, Percentage Injected Dose/gram", "value": "0.81 ± 0.13", "unit": "%ID/g"}, {"measurement": "tissue uptake at 0.5 h", "setting": "[3]", "value": "2.18 ± 0.88", "unit": "%ID/g"}, {"measurement": "tissue uptake at 2 h", "setting": "[3]", "value": "1.23 ± 0.62", "unit": "%ID/g"}, {"measurement": "tissue uptake at 4 h", "setting": "[3]", "value": "1.14 ± 0.16", "unit": "%ID/g"}, {"measurement": "tissue uptake at 24 h", "setting": "[3]", "value": "0.88 ± 0.3", "unit": "%ID/g"}, {"measurement": "tissue uptake at 2 h", "setting": "spleen, NDP blockade (10 μg NDP-MSH co-injected), read-out: Spleen, Percentage Injected Dose/gram", "value": "0.75 ± 0.37", "unit": "%ID/g"}, {"measurement": "tissue uptake at 2 h", "setting": "spleen, RGD blockade (3.5 μg RGD co-injected), read-out: Spleen, Percentage Injected Dose/gram", "value": "0.94 ± 0.3", "unit": "%ID/g"}, {"measurement": "tissue uptake at 0.5 h", "setting": "[4]", "value": "7.61 ± 1.98", "unit": "%ID/g"}, {"measurement": "tissue uptake at 2 h", "setting": "[4]", "value": "2.57 ± 0.38", "unit": "%ID/g"}, {"measurement": "tissue uptake at 4 h", "setting": "[4]", "value": "2.46 ± 1.39", "unit": "%ID/g"}, {"measurement": "tissue uptake at 24 h", "setting": "[4]", "value": "0.91 ± 0.67", "unit": "%ID/g"}, {"measurement": "tissue uptake at 2 h", "setting": "stomach, NDP blockade (10 μg NDP-MSH co-injected), read-out: Stomach, Percentage Injected Dose/gram", "value": "2.43 ± 0.8", "unit": "%ID/g"}, {"measurement": "tissue uptake at 2 h", "setting": "stomach, RGD blockade (3.5 μg RGD co-injected), read-out: Stomach, Percentage Injected Dose/gram", "value": "2.64 ± 0.1", "unit": "%ID/g"}, {"measurement": "tissue uptake at 0.5 h", "setting": "[5]", "value": "11.1 ± 1.41", "unit": "%ID/g"}, {"measurement": "tissue uptake at 2 h", "setting": "[5]", "value": "14.8 ± 2.94", "unit": "%ID/g"}, {"measurement": "tissue uptake at 4 h", "setting": "[5]", "value": "12.6 ± 2.53", "unit": "%ID/g"}, {"measurement": "tissue uptake at 24 h", "setting": "[5]", "value": "7.59 ± 2.04", "unit": "%ID/g"}, {"measurement": "tissue uptake at 2 h", "setting": "tumor, NDP blockade (10 μg NDP-MSH co-injected), read-out: Tumor, Percentage Injected Dose/gram", "value": "1.81 ± 0.64", "unit": "%ID/g"}, {"measurement": "tissue uptake at 2 h", "setting": "tumor, RGD blockade (3.5 μg RGD co-injected), read-out: Tumor, Percentage Injected Dose/gram", "value": "10.5 ± 1.18", "unit": "%ID/g"}, {"measurement": "tissue to tissue ratio at 0.5 h", "setting": "[6]", "value": 3.48}, {"measurement": "tissue to tissue ratio at 2 h", "setting": "[6]", "value": 15.4}, {"measurement": "tissue to tissue ratio at 4 h", "setting": "[6]", "value": 25.1}, {"measurement": "tissue to tissue ratio at 24 h", "setting": "[6]", "value": 69}, {"measurement": "tissue to tissue ratio at 2 h", "setting": "tumor/blood, NDP blockade (10 μg NDP-MSH co-injected), read-out: Uptake Ratio Tumor/Blood", "value": 5.66}, {"measurement": "tissue to tissue ratio at 2 h", "setting": "tumor/blood, RGD blockade (3.5 μg RGD co-injected), read-out: Uptake Ratio Tumor/Blood", "value": 19.8}, {"measurement": "tissue to tissue ratio at 0.5 h", "setting": "[7]", "value": 0.16}, {"measurement": "tissue to tissue ratio at 2 h", "setting": "[7]", "value": 0.22}, {"measurement": "tissue to tissue ratio at 4 h", "setting": "[7]", "value": 0.18}, {"measurement": "tissue to tissue ratio at 24 h", "setting": "[7]", "value": 0.19}, {"measurement": "tissue to tissue ratio at 2 h", "setting": "tumor/kidneys, NDP blockade (10 μg NDP-MSH co-injected), read-out: Uptake Ratio Tumor/Kidneys", "value": 0.03}, {"measurement": "tissue to tissue ratio at 2 h", "setting": "tumor/kidneys, RGD blockade (3.5 μg RGD co-injected), read-out: Uptake Ratio Tumor/Kidneys", "value": 0.19}, {"measurement": "tissue to tissue ratio at 0.5 h", "setting": "[8]", "value": 2.75}, {"measurement": "tissue to tissue ratio at 2 h", "setting": "[8]", "value": 4.68}, {"measurement": "tissue to tissue ratio at 4 h", "setting": "[8]", "value": 4.32}, {"measurement": "tissue to tissue ratio at 24 h", "setting": "[8]", "value": 4.39}, {"measurement": "tissue to tissue ratio at 2 h", "setting": "tumor/liver, NDP blockade (10 μg NDP-MSH co-injected), read-out: Uptake Ratio Tumor/Liver", "value": 0.63}, {"measurement": "tissue to tissue ratio at 2 h", "setting": "tumor/liver, RGD blockade (3.5 μg RGD co-injected), read-out: Uptake Ratio Tumor/Liver", "value": 4.63}, {"measurement": "tissue to tissue ratio at 0.5 h", "setting": "[9]", "value": 2.08}, {"measurement": "tissue to tissue ratio at 2 h", "setting": "[9]", "value": 11.8}, {"measurement": "tissue to tissue ratio at 4 h", "setting": "[9]", "value": 11.8}, {"measurement": "tissue to tissue ratio at 24 h", "setting": "[9]", "value": 8.07}, {"measurement": "tissue to tissue ratio at 2 h", "setting": "tumor/lung, NDP blockade (10 μg NDP-MSH co-injected), read-out: Uptake Ratio Tumor/Lung", "value": 1.38}, {"measurement": "tissue to tissue ratio at 2 h", "setting": "tumor/lung, RGD blockade (3.5 μg RGD co-injected), read-out: Uptake Ratio Tumor/Lung", "value": 9.38}, {"measurement": "tissue to tissue ratio at 0.5 h", "setting": "[10]", "value": 29.1}, {"measurement": "tissue to tissue ratio at 2 h", "setting": "[10]", "value": 43.6}, {"measurement": "tissue to tissue ratio at 4 h", "setting": "[10]", "value": 96.7}, {"measurement": "tissue to tissue ratio at 24 h", "setting": "[10]", "value": 33}, {"measurement": "tissue to tissue ratio at 2 h", "setting": "tumor/muscle, NDP blockade (10 μg NDP-MSH co-injected), read-out: Uptake Ratio Tumor/Muscle", "value": 8.62}, {"measurement": "tissue to tissue ratio at 2 h", "setting": "tumor/muscle, RGD blockade (3.5 μg RGD co-injected), read-out: Uptake Ratio Tumor/Muscle", "value": 70}]}]}
